In one series the target is T1, Progesterone receptor (Homo sapiens, UniProt P06401).
T1 sequence (P06401 whole entry): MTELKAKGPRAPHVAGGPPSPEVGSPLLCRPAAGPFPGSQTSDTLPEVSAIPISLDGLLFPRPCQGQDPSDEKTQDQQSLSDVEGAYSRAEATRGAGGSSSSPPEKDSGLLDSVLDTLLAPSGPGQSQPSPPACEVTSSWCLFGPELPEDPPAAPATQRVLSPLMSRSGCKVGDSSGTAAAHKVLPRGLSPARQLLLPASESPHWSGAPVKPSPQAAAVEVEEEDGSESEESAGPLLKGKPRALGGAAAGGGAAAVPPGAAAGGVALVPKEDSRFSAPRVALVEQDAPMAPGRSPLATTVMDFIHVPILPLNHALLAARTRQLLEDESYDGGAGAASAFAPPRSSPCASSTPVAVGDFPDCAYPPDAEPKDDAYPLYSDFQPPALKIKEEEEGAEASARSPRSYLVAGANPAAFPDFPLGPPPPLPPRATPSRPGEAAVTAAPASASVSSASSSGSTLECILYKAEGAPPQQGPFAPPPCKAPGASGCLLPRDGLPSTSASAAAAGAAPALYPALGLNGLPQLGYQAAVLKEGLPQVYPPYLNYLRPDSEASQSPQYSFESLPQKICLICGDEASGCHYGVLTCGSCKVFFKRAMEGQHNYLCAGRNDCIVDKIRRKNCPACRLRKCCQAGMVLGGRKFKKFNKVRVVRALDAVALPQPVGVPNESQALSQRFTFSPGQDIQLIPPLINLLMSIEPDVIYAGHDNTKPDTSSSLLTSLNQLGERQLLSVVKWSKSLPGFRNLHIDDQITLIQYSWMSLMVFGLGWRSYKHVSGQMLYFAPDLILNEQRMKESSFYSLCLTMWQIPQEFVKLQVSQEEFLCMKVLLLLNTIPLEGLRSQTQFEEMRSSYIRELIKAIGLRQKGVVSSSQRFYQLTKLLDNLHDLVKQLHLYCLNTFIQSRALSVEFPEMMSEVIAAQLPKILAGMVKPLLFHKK
As to the kind of experiment: Antagonist activity at PR (unknown origin).

A short description of series [1]: Dissociation constant, pKa of the compound. Type of series: physicochemical.
In a further series the target is CYP2C9 (Homo sapiens, UniProt P11712). The experiment in a line: Inhibition of CYP2C9 (unknown origin) at 3 uM. Type of series: ADME.
CYP2C9, sequence (P11712 whole entry): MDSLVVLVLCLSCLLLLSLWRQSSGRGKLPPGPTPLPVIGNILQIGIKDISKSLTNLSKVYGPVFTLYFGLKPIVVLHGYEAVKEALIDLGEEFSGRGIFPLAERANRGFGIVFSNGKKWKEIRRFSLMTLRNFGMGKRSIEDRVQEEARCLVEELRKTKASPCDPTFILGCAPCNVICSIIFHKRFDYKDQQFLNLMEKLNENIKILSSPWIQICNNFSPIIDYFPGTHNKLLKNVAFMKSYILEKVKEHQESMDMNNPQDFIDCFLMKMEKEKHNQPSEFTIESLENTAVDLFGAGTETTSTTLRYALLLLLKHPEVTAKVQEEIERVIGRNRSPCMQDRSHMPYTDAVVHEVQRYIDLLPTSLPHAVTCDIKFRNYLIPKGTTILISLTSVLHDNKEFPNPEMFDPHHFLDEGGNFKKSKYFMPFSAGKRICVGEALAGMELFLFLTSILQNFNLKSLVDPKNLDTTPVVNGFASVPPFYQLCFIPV

A word on the IC50: it is the point on the concentration scale where inhibition reaches its midpoint. Broadly, the pKa is the pH at which an ionisable group is half protonated. As usually defined, the inhibition is the share of the control response that was lost under treatment. Read a high inhibition as a strong effect.

In turn, `COc1cc(NS(=O)(=O)C(F)(F)F)cc(OC)c1Oc1ccc(C#N)c(Cl)c1` displayed an IC50 at Progesterone receptor of 175 nM. Further, the pKa in series [1] came to 4.5. The same compound registered an inhibition at 3 µM against CYP2C9 of 95%.
With `N#Cc1ccc(O[C@H]2CC[C@H](NS(=O)(=O)C(F)(F)F)CC2)cc1Cl`, inhibition against Progesterone receptor was half-maximal at 43 nM (IC50). In addition, the inhibition at 3 µM against CYP2C9 is 77%.
In the same order, the values of `CS(=O)(=O)N[C@H]1CC[C@H](Oc2ccc(C#N)c(Cl)c2)CC1` are 107 nM and 0%.
With `COc1cc(NS(C)(=O)=O)cc(OC)c1Oc1ccc(C#N)c(Cl)c1`, 26 nM corresponded to half-maximal inhibition against Progesterone receptor (IC50). The compound further displayed a pKa in series [1] of 8.5. Also, the inhibition at 3 µM on CYP2C9 was found to be 9%.

For the origin of these results see ChEMBL document CHEMBL3817830, “Discovery of a novel binding pocket for CYP 2C9 inhibitors: crystallography, pharmacophore modelling and inhibitor SAR” (Medchemcomm, 2016).
